Laboratory results taken from patent publication US20240018105A1, “TROPOLONE DERIVATIVES AND TAUTOMERS THEREOF FOR IRON REGULATION IN ANIMALS” (Kinesid Therapeutics, Inc., priority 2019, published 2024).

Assays:
Mouse 6-hour PK study = settings: in vivo
Text: (§1) Compounds of the present disclosure were further evaluated in standard in vitro and in vivo Absorption, Distribution, Metabolism, Excretion (ADME) and Drug Metabolism and Pharmacokinetics (DMPK) assays to assess drug profiles important for further drug development.
(§2) Such assessments included human and mouse liver microsomal stability assays as well as 6-hour mouse PK studies.

[1] = Human liver microsomal stability assay; type: in vitro ADME
Text: as §1, §2

[2] = Ligand facilitated Fe(III) efflux from liposomes; settings: 10 uM ligand concentration
How it was run: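 POPC:cholesterol liposomes loaded with Fe(III)-citrate (pH 7.0), used at 1 mM phosphorus with 1 mM ferrozine outside. Ligand at 40–1.25 μM final, in triplicate; absorbance at 562 nm read every 60 s for 120 min. Efflux rate k from single-phase association fit, averaged over triplicates.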

[3] = Mouse liver microsomal stability assay; type: in vitro ADME
Text: as §1, §2

[4] = system: DMT1-deficient Caco-2 cells; test: shDMT1-Caco2 55Fe transport assay; type: cell-based
Text: Assay 2: shDMT1-Caco2 ^55Fe Transport Assay to Assess Ligand Ability in Transporting Fe (III)
Cells: DMT1-deficient Caco-2 cells (alias: “shDMT1,” or “4A” cells) were from Grillo et al. Science, 2017, and were cryopreserved in liquid nitrogen prior to use.
Reagents and supplies: ^55FeCl3 was obtained from PerkinElmer (Boston, MA). Iron(III) chloride (FeCl3) hexahydrate was obtained from Sigma. Dulbecco's Modified Eagle Medium (DMEM), fetal bovine serum (FBS), L-glutamine, MEM nonessential amino acids, penicillin-streptomycin, G418, formic acid, methanol, high-purity water, ammonium formate, dimethyl sulfoxide (DMSO) were purchased from Fisher Scientific. Propranolol, atenolol and carbutamide were obtained from Sigma-Aldrich Chemical Company (St Louis, MO). Scintillation cocktail was obtained from Research Product International Co. (Mount Prospect, IL). Stericup filter system (PES membrane, 0.22 um pore size) was purchased from Fisher Scientific. Coming item #3378 24-well transwell insert plates. Test articles: known compounds hinokitiol and deferiprone were purchased from Sigma. They are tested side by side with the small molecule ligands disclosed in this application. DMSO stocks (10 mM, which is 1,000× of the 10 μM dose level) of hinokitiol or test articles were prepared. A stock solution of 25 mM deferiprone in DMSO was prepared. The DMSO stock solutions were stored at −20° C. or below when not in use.
The growth medium was prepared according to the following table
Apical media (serum free DMEM, 10 mM MES, pH 6.5) was prepared. Apical master mix media was prepared fresh with the addition of 200 nM ^55Fe before each experiment. For the negative control propranolol and atenolol wells, 200 nM of non-radioactive iron was used.
The basolateral media was serum-free DMEM, 10 mM HEPES, 2% bovine serum albumin (BSA), pH 7.4.
For each experiment, cells were seeded into the 24-well transwell plates (0.5 mL of 50,000 cells/mL) with growth media. The basolateral companion plate was loaded with 1 mL of growth media. After 12-24 hr, both the apical and basolateral chamber were replaced with growth media. The apical media was changed 3× per week for 21-28 days, including a media change exactly 48 hr before the assay date.
On the assay day, the TEER values were measured and the average TEER values was obtained. Individual wells with TEER vaule >35% lower than the average of all wells were excluded. For the qualified wells, the apical layer (twice) and basolaterial (once) chambers were washed with PBS. The basolateral companion plate was then filled with 1 mL of basolateral media. Via addition down the side-wall of the apical well, 300 μL per well of the apical assay master mix, with the indicated dose level of test article, was added. Each dose was tested in triplicate. The plates were incubated (5% CO2 and 90% humidity at 37° C.) for the indicated timepoints. At each indicated timepoint, the basolateral supernatant was gently mixed via pipetting, and 200 μL of the basolateral supernatant was transferred to scintillation vials. To each scintillation counting vial, 5 mL of scintillation cocktail fluid was added. For each scintillation vial, the radioactivity (CPM) was determined with liquid scintillation counter LS6500. The counting time per vial was 5 min.
All raw CPM values are divided by the average value of blank DMSO solution to give a fold of change above the DMSO value. The mean and standard deviation of each compound at each concentration level and at each time point measured was calculated to give the fold change (fc) value.
For rank order compounds, the fc value of a ligand at 4 h time point is further divided by the fold change (fc) value of hinokitiol (a positive control compound) at an equimolar concentration to arrive at the FC (normalized fold of change) value. Data reported in Tables 1 and 2 is 4 hr time point FC=fc-ligand @ 3 uM/fc-hino @ 3 uM, and FC hino=1.

Compound | AUC(0-t) (Mouse 6-hour PK study) [µg·h/mL] | Cmax (Mouse 6-hour PK study) [µg/mL] | half-life (Mouse 6-hour PK study) [h] | half-life ([1]; human, microsomes) [h] | microsomal CLint ([1]; human, microsomes) [µL/min/mg] | half-life ([3]; mouse, microsomes) [h] | microsomal CLint ([3]; mouse, microsomes) [µL/min/mg] | Caco2 shDMT1 transport FC @ 3 μM, 4h ([4]; Caco-2) | mouse 6-hour PK properties compared to hinokitiol (Mouse 6-hour PK study) | Liposome Fe transport kefflux at 10 10 μM ([2]; Table 1) | clearence half-life (t1/2) and/or intrinsic clearence (CLint) compared to hinokitiol ([1]; microsomes) | Liposome Fe transport Kefflux at 10 μM ([2]; Table 2) | microsomal CLint ([1]; human liver microsomes, Table 4, read-out: Human CLint) [µL/min/mg] | half-life ([1]; human liver microsomes, Table 4, read-out: Human t1/2) [h] | Liposome Fe transport Kefflux at 10 μM ([2]; Table 1) | microsomal CLint ([3]; mouse liver microsomes, Table 4, read-out: Mouse CLint) [µL/min/mg] | half-life ([3]; mouse liver microsomes, Table 4, read-out: Mouse t1/2) [h] | Caco2 shDMT1 transport FC @ 3 μM, 4h ([4]; 3 μM, 4 h, fold change normalized to hinokitiol (FC hino=1), Table 1) | Caco2 shDMT1 transport FC @ 3 μM, 4h ([4]; 3 μM, 4 h, fold change normalized to hinokitiol (FC hino=1), Table 2)
O=c1cccc(-c2cncc(F)c2)cc1O [Ex.1, 4-(5-fluoropyridin-3-yl)-2-hydroxycyclohepta-2,4,6-trien-1-one] | 5 to 20 | 5 to 20 | < 1.25 | > 2 | < 11.6 | > 2 | < 11.6 | 0.01-0.5 | one or more improved mouse 6-hour PK properties compared to hinokitiol | 5-7.5 |  |  |  |  |  |  |  |  | 
Cc1ccc(-c2cncc(F)c2)cc(O)c1=O [Ex.16, 4-(5-fluoropyridin-3-yl)-2-hydroxy-7-methylcyclohepta-2,4,6-trien-1-one] | > 20 | 5 to 20 | 1.25 to 4.99 | > 2 | < 11.6 | 1.38 | 16.7 | 0.5-1 | one or more improved mouse 6-hour PK properties compared to hinokitiol | 10-25 |  |  |  |  |  |  |  |  | 
Cc1c(F)cncc1-c1ccc([O-])c(=O)cc1.[Na+] [Ex.23, sodium 4-(5-fluoro-4-methylpyridin-3-yl)-7-oxocyclohepta-1,3,5-trien-1-olate] | > 20 | 5 to 20 | 1.25 to 4.99 | > 2 | < 11.6 | > 2 | < 11.6 | 0.01-0.5 | one or more improved mouse 6-hour PK properties compared to hinokitiol | 10-25 |  |  |  |  |  |  |  |  | 
O=c1ccccc(-c2ccc(F)cn2)c1O [Ex.26, 3-(5-fluoropyridin-2-yl)-2-hydroxycyclohepta-2,4,6-trien-1-one] | 1.5 to 5 | 1.5 to 5 | 1.25 to 4.99 | > 2.5 | < 25 | > 2.5 | < 25 | 0.01-0.5 | one or more improved mouse 6-hour PK properties compared to hinokitiol | 10-25 | longer clearence half-life (t1/2) and/or lower intrinsic clearence (CLint) than hinokitiol |  |  |  |  |  |  |  | 
O=c1cccc(-c2cnc(C3CC3)nc2)cc1O [Ex.37] | 1.5 to 5 | 0.5 to 1.5 | 1.25 to 4.99 | > 2 | < 11.6 | > 2 | < 11.6 | 0.01-0.5 | one or more improved mouse 6-hour PK properties compared to hinokitiol | 5-7.5 |  |  |  |  |  |  |  |  | 
O=c1ccccc(Oc2ccc(F)cc2F)c1O [Ex.67, 3-(2,4-difluorophenoxy)-2-hydroxycyclohepta-2,4,6-trien-1-one] | 1.5 to 5 | 1.5 to 5 | 1.25 to 4.99 |  |  |  |  | 0.01-0.5 | one or more improved mouse 6-hour PK properties compared to hinokitiol |  |  | <0.1 |  |  |  |  |  |  | 
CC(C)c1cccc(=O)c(O)c1 [hinokitiol, reference compound] |  |  |  |  |  |  |  |  |  |  |  | 7.77 | 150 | 0.153 | 7.77 | 43.4 | 0.533 | 1 | 1.00

Further lines, with some results ahead:

AUC(0-t) (Mouse 6-hour PK study) [µg·h/mL] | Cmax (Mouse 6-hour PK study) [µg/mL] | half-life (Mouse 6-hour PK study) [h] | half-life ([1]; human, microsomes) [h] | microsomal CLint ([1]; human, microsomes) [µL/min/mg] | half-life ([3]; mouse, microsomes) [h] | microsomal CLint ([3]; mouse, microsomes) [µL/min/mg] | Caco2 shDMT1 transport FC @ 3 μM, 4h ([4]; Caco-2) | Compound | mouse 6-hour PK properties compared to hinokitiol (Mouse 6-hour PK study) | Liposome Fe transport kefflux at 10 10 μM ([2]; Table 1) | clearence half-life (t1/2) and/or intrinsic clearence (CLint) compared to hinokitiol ([1]; microsomes) | Liposome Fe transport Kefflux at 10 μM ([2]; Table 2) | microsomal CLint ([1]; human liver microsomes, Table 4, read-out: Human CLint) [µL/min/mg] | half-life ([1]; human liver microsomes, Table 4, read-out: Human t1/2) [h] | Liposome Fe transport Kefflux at 10 μM ([2]; Table 1) | microsomal CLint ([3]; mouse liver microsomes, Table 4, read-out: Mouse CLint) [µL/min/mg] | half-life ([3]; mouse liver microsomes, Table 4, read-out: Mouse t1/2) [h] | Caco2 shDMT1 transport FC @ 3 μM, 4h ([4]; 3 μM, 4 h, fold change normalized to hinokitiol (FC hino=1), Table 1) | Caco2 shDMT1 transport FC @ 3 μM, 4h ([4]; 3 μM, 4 h, fold change normalized to hinokitiol (FC hino=1), Table 2)
5 to 20 | 1.5 to 5 | 1.25 to 4.99 | > 2 | < 11.6 | > 2 | < 11.6 | 0.01-0.5 | O=c1cccc(-c2ccc(F)cn2)cc1O [Ex.3, 4-(5-fluoropyridin-2-yl)-2-hydroxycyclohepta-2,4,6-trien-1-one] | one or more improved mouse 6-hour PK properties compared to hinokitiol | 5-7.5 |  |  |  |  |  |  |  |  | 
1.5 to 5 | 1.5 to 5 | 1.25 to 4.99 | > 2 | < 11.6 | > 2 | < 11.6 | 0.01-0.5 | Cc1ncc(-c2cccc(=O)c(O)c2)cn1 [Ex.31, 2-hydroxy-4-(2-methylpyrimidin-5-yl)cyclohepta-2,4,6-trien-1-one] | one or more improved mouse 6-hour PK properties compared to hinokitiol | 0.1-5 |  |  |  |  |  |  |  |  | 
5 to 20 | 1.5 to 5 | 1.25 to 4.99 | > 2 | < 11.6 | > 2 | < 11.6 | 0.01-0.5 | Cc1ncc(-c2cccc(=O)c(O)c2)c(C)n1 [Ex.32, 4-(2,4-dimethylpyrimidin-5-yl)-2-hydroxycyclohepta-2,4,6-trien-1-one] | one or more improved mouse 6-hour PK properties compared to hinokitiol | 5-7.5 |  |  |  |  |  |  |  |  | 
1.5 to 5 | 0.5 to 1.5 | 1.25 to 4.99 | > 2 | < 11.6 | > 2 | < 11.6 | 0.01-0.5 | Cc1ncc(-c2cccc(=O)c(O)c2)cc1F [Ex.57, 4-(5-fluoro-6-methylpyridin-3-yl)-2-hydroxycyclohepta-2,4,6-trien-1-one] | one or more improved mouse 6-hour PK properties compared to hinokitiol | 7.5-10 |  |  |  |  |  |  |  |  | 
